Results from patent US10350216B2, “Methods of treating, preventing and diagnosing leukemia and other blood diseases and disorders” (The Trustees of Columbia University in the City of New York, priority 2013, dated 2019).

Columns and labels:
βcat(ex3)osb mice [1] = test: Six-week treatment of βcat(ex3)osb mice with anti-Jagged1 antibody or DBZ (Example 17); type: in vivo
Procedure: The following endpoints are analyzed: survival, complete hematopoietic profile in the marrow, leukemia presence in peripheral blood, bone marrow, spleen and liver, potential end organ toxicity, and gene expression profiling of Notch targets Hes1, Hes5, Hey1, and Hey2, and the Hes1 targets, Cebpα and Pu.1.

wild type mice = test: DBZ treatment of wild type mice: peripheral blood counts and bone marrow cellularity; type: in vivo, mouse; conditions: DBZ 2 μmol/kg body weight daily for 10 days
Procedure: (§1) […] DBZ is cell-permeable, selective, nontransition sate and noncompetitive inhibitor of the γ-secretase complex. DBZ was synthesized to greater than 99.9% purity as assessed by LC/MS (Syncom) and suspended in a 0.5% Methocel E4M (wt/vol, Colorcon) and 0.1% (vol/vol) Tween-80 (Sigma) solution (van Es et al., 2005). Immediately before intraperitoneal injection, DBZ was sonicated for 2 minutes to achieve a homogenous suspension.
For hematological measurements, blood was collected by cardiac puncture. Peripheral blood cell counts were performed on a FORCYTE Hematology Analyzer (Oxford Science Inc.). For morphological assessment, peripheral blood smears were stained with Wright-Giemsa stain (Sigma-Aldrich) for 10 minutes followed by rinsing in dH2O for 3 minutes. Images were taken using a 60× objective on a Leica microscope outfitted with camera. […]
Hematological measurements, peripheral blood morphology, flow cytometry, PCR, and histological analysis were performed as described in Example 1.

βcat(ex3)osb mice [2] = test: DBZ (γ-secretase inhibitor) treatment of βcat(ex3)osb mice: blood counts, flow cytometry, histology, survival; type: in vivo
Procedure: as §1
For hematological measurements, blood was collected by cardiac puncture. Peripheral blood cell counts were performed on a FORCYTE Hematology Analyzer (Oxford Science Inc.). For morphological assessment, peripheral blood smears were stained with Wright-Giemsa stain (Sigma-Aldrich) for 10 minutes followed by rinsing in dH2O for 3 minutes. Images were taken using a 60× objective on a Leica microscope outfitted with camera.
Freshly isolated bone marrow cells and spleen cells were resuspended in flow-staining buffer (PBS plus 2% FBS) and the primary conjugated antibodies were added. After 30 minutes incubation at 4° C., the cells were then washed twice before flow cytometry analysis. The following monoclonal antibodies conjugated with fluorescein isothiocyanate (FITC), Allophycocyanin (APC) phycoerythrin (PE), PE-Cy7, APC-CY7, Pacific Blue, and Alexa 700 were used: CD117 (c-kit; 2B8), Sca-1 (D7), Mac-1α (M1/70), Gr-1(RB6-8C5), TER-119, (Ly-76) B220 (CD45R), CD19 (ID3), IgM (R6-60.2), CD3 (17A2), CD4 (RM4-5), CD8a (53-6.7), CD34 (RAM34), CD45 (30-F11), CD31 (MEC 13.3), CD16/CD32 (FcγRII/III; 2.4G2), CD135 (A2F10.1), CD150 (9D1), CD71 (C2), CD45.2 (104), CD45.1 (A20), F4/80, non-phospho (Active) β-Catenin (S33/S37/T41) antibody, IL-7Rα (SB199), Jagged-1 (C-20) and (Cell Signaling; D13A1). Seven-color flow cytometry acquisition was performed using a LSR II flow cytometer (Becton Dickinson) and analysis using FLO-JO software (Treestar, Inc). Cells were gated for size, shape and granularity using forward and side scatter parameters. The positive populations were identified as cells that expressed specific levels of fluorescence activity above the nonspecific auto fluorescence of the isotype control. Nonspecific binding was reduced by preincubation with unconjugated (2.4G2). Osteoblasts from MDS/AML patients or healthy subjects were identified as CD34−/Lin−OCN+ cells, (OCN: osteocalcin an osteoblast-specific protein used for isolation of live osteoblastic cells). For Flow sorting bone marrow, spleen and thymus cells were resuspended in flow staining buffer at 1×10^6/ml and labeled with the appropriate conjugated antibodies. After 30 minutes incubation, cells were washed twice using flow buffer. Flow sorting was performed using FACSAria (Becton Dickinson). Sorted populations were subsequently cultured or stored in RLT buffer at −80° C. for later extraction of RNA. Fluorescence intensity plots were presented in log scale. All flow cytometry data were representative of five independent experiments.
Bone marrow biopsies were fixed overnight in 10% neutral formalin solution, decalcified embedded in paraffin and sectioned at 5 μm per standard laboratory protocol. Sections were stained for β-catenin using a monoclonal antibody (1:1000, BD Transduction Lab) or for Runx2 using a polyclonal antibody (1:100 dilution, Santa Cruz) on an automated Ventana Discovery XT (Tuscon, Ariz.) platform according to manufacturer's instructions. Immune complexes formed were developed using a DAB Map Kit (Ventana, Tuscon, Ariz.). Murine long bones, spleen and liver were collected from one month old mice, fixed overnight in 10% neutral formalin solution, embedded in paraffin, sectioned at 5 μm, and stained with haematoxylin and eosin (H&E). For immunohistochemistry, specimens were incubated with CD-117 (C-kit; Abeam), CD13 (Santa Cruz) or Myeloperoxidase (MPO) antibodies after an antigen retrieval step and blocking of endogenous peroxidase with 3% H2O2. […]

[3] = test system: LSK cells cultured in the presence of primary osteoblasts; test: Real-time PCR of Hes1, Pu.1 and CEBPα in LSK+ population co-cultured with primary osteoblasts and treated with Wnt3a; type: cell-based, mouse; conditions: Wnt3a 50 ng/ml for 24 hours, co-culture with primary osteoblasts
Procedure: (§2) In FIGS. 57B and C, the vehicle treated is represented by the left hand bar and the Wnt3a treated is represented by the right hand bar. n=4 replicates, *p<0.05 versus vehicle. Results are mean±SD.
(§3) Total RNA was isolated from LSK or hematopoietic cells using RNAeasy micro Plus kit (Quiagen). Total RNA from long bones was isolated using TRIzol reagent. Quantitative real-time PCR was performed using the SYBR Green Master Mix (Bio-Rad) as previously described (Rached et al., 2010a). β-Actin was used as endogenous control. Gene expression in LT-HSCs, ST-HSCs and MPPs was performed using the Power Syber Green Cells-to-CT kit (Ambion Life Technologies)

[4] = test system: primary, calvaria-derived osteoblasts; test: Real-time PCR of Jagged-1 and Magp-2 in primary osteoblasts treated with Wnt3a; type: cell-based, mouse; conditions: Wnt3a 50 ng/ml for 24 hours, versus vehicle
Procedure: as §2, §3
For flow cytometry analysis, osteoblasts were identified from the digested bone samples as a population of CD34^−Lin^−Ocn^+ cells, where OCN (osteocalcin) is an osteoblast-specific, non-nuclear protein commonly used for isolation of live osteoblastic cells (Eghbali-Fatourechi et al., 2005; Rubin et al., 2011; Manavalan et al., 2012). For experiments in mice, all gene expression studies were repeated using calvaria-derived cells a population rich in committed osteoblast progenitors and routinely used as osteoblast-representative. Primary murine osteoblasts were prepared from calvaria of 2 day-old pups as previously described (Ghosh-Choudhury et al., 1994; Rached et al., 2010b). […]

[5] = βcat(ex3)osb mice, six weeks treatment
[6] = βcat(ex3)osb mice, 10 days DBZ, bone marrow and spleen
[7] = βcat(ex3)osb mice, DBZ 2 μmol/kg body weight daily for 10 days

`C[C@H](NC(=O)Cc1cc(F)cc(F)c1)C(=O)NC1C(=O)N(C)c2ccccc2-c2ccccc21` (stereo partly drawn) [DBZ, (2S)-2-[2-(3,5-difluorophenyl)-acetylamino]-N-(5-methyl-6-oxo-6,7-dihydro-5H-dibenzo[b,-d]azepin-7-yl)-propionamide] was tested, and the “Toxic effect on the intestines” value (βcat(ex3)osb mice [1]; mouse, in vivo) was “no toxic effect”, the “Anemia, peripheral monocytosis, neutrophilia and lymphocytopenia and defects in the myeloid lineage, erythroid cells, LSK and LT-HSCs populations in the bone marrow” value (βcat(ex3)osb mice [1]; [5]) was “reversal” and the “Expression of Notch targets Hes1, Hes5, Hey1, and Hey2, and the Hes1 targets, Cebpα and Pu.1” value (βcat(ex3)osb mice [1]; [5]) was “decrease”. For the same compound, the “Invasion of myeloid cells” value (βcat(ex3)osb mice [1]; [5]) was “no invasion”, the “LSK and lymphoid-biased progenitors in the bone marrow and LSK/FcgRII/III subset of myeloid progenitors in spleen and bone marrow” value (βcat(ex3)osb mice [1]; [5]) was “return to normal levels” and the “Myeloperoxidase staining in bone marrow, spleen and liver” value (βcat(ex3)osb mice [1]; [5]) was “identical to that of control animals”. The Survival (βcat(ex3)osb mice [1]; [5]) was “increased survival”, the “BA (basophils)” value (wild type mice) was 0.5 ± 0.2% and the “BM cell per femur” value (wild type mice) was 71.5 ± 4.3 10^5. For the same compound, the “EO (eosinophils)” value (wild type mice) was 1.55 ± 0.2%, the HB (wild type mice) was 12.8 ± 0 g/dL and the HCT (wild type mice) was 45.90 ± 2.5%. The “LY (lymphocytes)” value (wild type mice) was 78.54 ± 3.2%, the “MO (monocytes)” value (wild type mice) was 5.01 ± 0.6% and the NE (wild type mice) was 14.41 ± 3.2%. For the same compound, the Platelet (wild type mice) was 1119.5 ± 68.5 10^3/μl, the WBC (wild type mice) was 3.54 ± 0.5 ×10^3/μl and the “Toxic effects (intestinal architecture, goblet cell metaplasia, PAS staining)” value (βcat(ex3)osb mice [2]; mice treated 10 days with DBZ, intestine) was “without any toxic effects”. For the same compound, the “Survival (Kaplan-Meier)” value (βcat(ex3)osb mice [2]; βcat(ex3)osb mice treated with DBZ versus vehicle) was “increased survival”, the “Blasts and hypersegmented neutrophils in the blood; infiltration with immature and atypical myeloid cells and atypical micro-megakaryocytes in bone marrow and spleen” value (βcat(ex3)osb mice [2]; βcat(ex3)osb mice, 10 days DBZ) was “not observed” and the Bone marrow cellularity (βcat(ex3)osb mice [2]; βcat(ex3)osb mice, 10 days DBZ) was “not affected”. The “LSK and lymphoid-biased progenitors in the bone marrow and LSK/FcgRII/III subset of myeloid progenitors in spleen and bone marrow” value (βcat(ex3)osb mice [2]; βcat(ex3)osb mice, 10 days DBZ) was “returned to normal levels”, the Liver histology (βcat(ex3)osb mice [2]; βcat(ex3)osb mice, 10 days DBZ) was “appeared normal” and the “Myeloperoxidase staining in bone marrow, spleen and liver” value (βcat(ex3)osb mice [2]; βcat(ex3)osb mice, 10 days DBZ) was “identical to that of wild type animals”. For the same compound, the “Compromised B-lymphopoiesis” value (βcat(ex3)osb mice [2]; [6]) was “partially rescued”, the “Defects in the myeloid lineage, erythroid cells, LSK and LT-HSCs populations” value (βcat(ex3)osb mice [2]; [6]) was “reversed” and the Osteopetrotic phenotype (βcat(ex3)osb mice [2]; βcat(ex3)osb mice, 10 days DBZ, long bone sections) was “not affected”. The “Anemia, peripheral monocytosis, neutrophilia and lymphocytopenia” value (βcat(ex3)osb mice [2]; βcat(ex3)osb mice, 10 days DBZ, peripheral blood) was “reversed”, the “BA (basophils)” value (βcat(ex3)osb mice [2]; [7]) was 0.67 ± 0.7% and the “BM cell per femur” value (βcat(ex3)osb mice [2]; [7]) was 18.6 ± 3.5 10^5. The “EO (eosinophils)” value (βcat(ex3)osb mice [2]; [7]) was 1.87 ± 1.6%, the HB (βcat(ex3)osb mice [2]; [7]) was 11.2 ± 0.9 g/dL and the HCT (βcat(ex3)osb mice [2]; [7]) was 36.75 ± 3.2%. For the same compound, the “LY (lymphocytes)” value (βcat(ex3)osb mice [2]; [7]) was 49.76 ± 4.3%, the “MO (monocytes)” value (βcat(ex3)osb mice [2]; [7]) was 7.46 ± 1.2% and the NE (βcat(ex3)osb mice [2]; [7]) was 42.21 ± 4.8%. The Platelet (βcat(ex3)osb mice [2]; [7]) was 650 ± 113.1 10^3/μl, the RBC (βcat(ex3)osb mice [2]; [7]) was 8.06 ± 0.5 ×10^6/μl and the WBC (βcat(ex3)osb mice [2]; [7]) was 3.1 ± 0.5 ×10^3/μl.

Wnt3a was tested, and the “Notch signaling in LSK cells (Hes1, Pu.1 and CEBPα expression)” value [3] was “stimulated” and the “Expression of Jagged-1 and Magp-2” value [4] was “upregulated”.
